Laboratory results taken from patent US10150793B2, “Antagonists of CB1 receptor” (INSERM (Institut National de la Santé et de la Recherche …, priority 2011, dated 2018).

Tests used:
CHO cells = assay: Study of metabolism in vitro in CHO cells, steroids in culture medium by GC/MS
How it was run: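 CHO-K1 cells were seeded at 25×10^4 cells/well in antibiotic-free DMEM-Glutamax with 10% FBS to assess metabolism of pregnenolone derivatives. Pregnenolone, allopregnanolone, epiallopregnanolone, testosterone and 5α-dihydrotestosterone in culture medium were extracted, purified and quantified by GC/MS.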

NMDA receptors = assay: Whole cell currents induced by NMDA in nucleus accumbens principal neurons; assay type: cell-based, mouse; conditions: −30 mV
Description: NMDAR-mediated currents: Changes in holding currents induced by NMDA were measured in cells voltage clamped at −30 mV, to relieve NMDAR from the voltage-dependent magnesium block. AMPAR and GABA-A receptors were blocked with DNQX 20 μM and picrotoxine 50 μM, respectably.
To quantify NMDA receptors-mediated currents we used a different strategy. Because of its slow kinetics and voltage dependence, the isolation of NMDAR-mediated mEPSC is not as reliable as for AMPAR-mediated currents. Thus, we decided to record whole cell currents in response exogenously applied NMDA. In NAc PN voltage-clamped at −30 mV, bath perfusion of NMDA 25 μM for 1 minute induced an inward current of similar magnitude in control slices (115±15.5 pA) and in slices pre-treated with pregnenolone (100 nM: 107±9.6 pA; 1 μM: 108.9±12.5 pA; p=0.91) (FIG. 17 B).

CB1 receptor [1] = target: T1, CB1 receptor (Rattus norvegicus, UniProt P20272); assay: THC inhibition of AMPAR-mediated EPSC, patch clamp in nucleus accumbens slices; assay type: cell-based, rats; set-up: from tissue; host or cells: acute coronal brain slices, nucleus accumbens; conditions: slices pre-treated with Pregnenolone 100 nM
T1 sequence (P20272 whole entry): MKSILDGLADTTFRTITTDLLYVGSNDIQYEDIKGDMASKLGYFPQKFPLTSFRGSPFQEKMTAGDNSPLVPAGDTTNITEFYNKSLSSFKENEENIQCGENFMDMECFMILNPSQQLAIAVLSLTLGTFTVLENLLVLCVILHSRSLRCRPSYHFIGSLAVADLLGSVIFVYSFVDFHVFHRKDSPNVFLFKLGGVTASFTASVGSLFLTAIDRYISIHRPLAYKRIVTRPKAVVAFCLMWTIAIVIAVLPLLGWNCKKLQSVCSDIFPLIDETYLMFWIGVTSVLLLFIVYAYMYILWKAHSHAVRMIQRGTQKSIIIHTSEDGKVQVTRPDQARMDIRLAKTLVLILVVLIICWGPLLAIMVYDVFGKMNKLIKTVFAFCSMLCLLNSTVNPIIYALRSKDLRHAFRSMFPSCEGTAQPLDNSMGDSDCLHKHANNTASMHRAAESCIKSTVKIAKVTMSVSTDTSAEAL

CB1 receptor [2] = target: T2, CB1 receptor (Mus musculus, UniProt P47746); assay: Intravenous self-administration of the CB1 agonist WIN 55,212-2; assay type: in vivo, CD1 mice; set-up: tissue Charles River Laboratories (France) (animals); host or cells: living mice, whole animal
T2 sequence (P47746 whole entry): as the sequence (P20272 whole entry) above, with E95D counted along it
Description: The intravenous self-administration experiments where the animals learned to self-infuse WIN 55, 212-2 (WIN) were conducted in mouse operant chambers (Model ENV-307A-CT, Medical Associates, Georgia, Vt., USA) using procedures previously described (Mendizabal V, et al., Neuropsychopharmacology. 2006, 31:1957-66).
In order to analyse the effects of pregnenolone administration on the positive reinforcing effect of CB1 activation that are related to the ability of THC to induce addiction, the inventors used the intravenous self-administration model performed in accordance to protocols previously described (Soria et al., 2006; Mendizabal et al., 2006). Intravenous self-administration is considered the best behavioural model of addiction. In this model animals learn to produce an operant response, in our case pocking the nose in a hole, in order to obtain an intravenous infusion of the drug. […] In this schedule animals are required to produce an increasing number of responses (ratio) to obtain one drug infusion, the break-point being the last ratio completed and is considered a reliable measure of the motivation for the drug. On PR session the response requirement to earn an injection escalated according to the following series: 1-2-3-5-12-18-27-40-60-90-135-200-300-450-675-1000.

CB1 receptor [3] = target: T1, CB1 receptor; assay: THC-induced increase in food intake in ad libitum fed Wistar rats; assay type: in vivo; set-up: tissue Charles River Laboratories (France) (animals); host or cells: living Wistar rats, whole animal
Description: Food intake was evaluated by measuring consumption of food in the home cages of the animals. For each animal, 50-100 g of standard laboratory chow (U.A.R., France) was placed in the cleaned home cage. The remaining amount of food was weighted 1 h later and the amount of food consumed calculated.

CB1 receptor [4] = target: T2, CB1 receptor; assay: Object recognition task, THC-induced amnesia; assay type: in vivo, mice; set-up: tissue Charles River Laboratories (France) (animals); host or cells: living mice, whole animal
Description: Object recognition was measured in a two arms L-maze (size of each arm 30 cm length×4.5 cm width) in dim light condition (50-60 lux). Animals were individually tested for three consecutive days for 9 min-session each day, corresponding to habituation, training and test sessions. On day 1 (habituation session), mice were let explore the L maze with no object. On the second day (training session), two identical objects were presented at the end of the each arm of the maze. Although no preferences for arm of object appeared (data not shown) object and arms were randomized for each mouse/condition. On the 3rd day (test session), one of the familiar objects was replaced with a novel object and the total time spent exploring each of the two objects (novel and familiar) was computed. The time spent in each arm and the time spent exploring an object (familiar or novel) were recorded. Object exploration was defined as the orientation of the nose to the object at a distance of less than 2 cm. During the test session, a discrimination index was calculated as the difference between the times spent exploring either the novel or familiar object divided by the total time exploring the two objects. […]
In this example the inventors further analyzed the ability of pregnenolone to inhibit the effects of CB1 activation. […]

[5] = culture medium of treated CHO cells, 0 = concentrations below the detection limit
[6] = culture medium, pregnenolone 1 μM, 48 hours

CC(=O)[C@H]1CC[C@H]2[C@@H]3CC=C4C[C@@H](O)CC[C@]4(C)[C@H]3CC[C@]12C [Pregnenolone, 5-Pregnen-3β-ol-20-one]
DHEA (CHO cells; [5]): 0.00 pg/mL | TESTO (CHO cells; [5]): 0.00 pg/mL | ALLO steroid levels (CHO cells; [6]): 3529.99 pg/mL | EPIALLO steroid levels (CHO cells; [6]): 16963.84 pg/mL | PREG steroid levels (CHO cells; [6]): 11440.66 pg/mL | THDOC steroid levels (CHO cells; [6]): 77.47 pg/mL | inward current induced by NMDA 25 μM (NMDA receptors; slices pre-treated with 100 nM): 107±9.6 pA | inward current induced by NMDA 25 μM (NMDA receptors; slices pre-treated with 1 μM): 108.9±12.5 pA | inhibition of EPSC amplitude by THC (CB1 receptor [1]): 15.1±1.8 % of inhibition | effect on motivation (break-point, progressive ratio schedule) (CB1 receptor [2]; pregnenolone 2 or 4 mg/kg): decreased the motivation to self-administer WIN55,212 | effect on self-administration of WIN55,212 (CB1 receptor [2]; pregnenolone 2 or 4 mg/kg before the session, WIN 12.5 μg/kg per injection): profoundly reduced the self-administration of WIN55,212 | effect on THC-induced food intake in sated rats (CB1 receptor [3]; THC 0.5 mg/kg, pregnenolone 30 min before THC): dose-dependently decreased THC-induced food intake | effect on basal food intake (CB1 receptor [3]; pregnenolone 2 mg/kg, FIG. 3 A, B): did not significantly modified basal food intake | dose with statistically significant effect on THC-induced food intake (CB1 receptor [3]; sated rats, THC 0.5 mg/kg): 2 mg/kg | effect on memory retention in the absence of THC (CB1 receptor [4]; pregnenolone 6 mg/kg): did not induce any change in memory retention | effect on amnesic effect of THC (CB1 receptor [4]; pregnenolone 6 mg/kg immediately after training, THC 10 mg/kg): strongly blunted the amnesic effect
